Source: article doi:10.1101/2024.08.25.609621 (bioRxiv, 2024)
Values joined by “and” are separate entries in the source; they are usually repeats but may differ in a detail not shown here. Equal entries are not always repeated. Where two headings read alike, the source gives them in different places.

Tests used:
[1] = target: SARS-CoV-2 NSP3 macrodomain (Mac1), P43 crystal form (Severe acute respiratory syndrome coronavirus 2, UniProt P0DTD1); assay type: binding; conditions: for 1-BDC: PanDDA background density correction; for Hit (PanDDA run, overall) / Hit (PanDDA run, DMSO background map) / 1-BDC (PanDDA run, DMSO background map): crystal soak 10 mM; for Total number of conformations: ligand conformations modeled in Mac1 crystal structure; for X-ray crystallography: Binding site: site where the ligand is bound in the X-ray crystal structure; for X-ray crystal structure: TRUE = crystal structure with ligand determined; for Binding site: site of Mac1 where ligand bound in crystal structure
[2] = target: SARS-CoV-2 NSP3 macrodomain (Mac1) (Severe acute respiratory syndrome coronavirus 2, UniProt P0DTD1); test: biochemical; assay type: binding; conditions: for Hill slope: HTRF dose-response fit, Mac1; for SARS CoV-2 macrodomain HTRF assay: Hillslope: dose-response fit; for IC50: Dose-response, SARS CoV-2 macrodomain HTRF assay, read-out: IC50
[3] = occupancy estimate from PanDDA BDC
[4] = crystal soak, soak concentration 10 mM, P43 crystals, TRUE = ligand-binding event identified
[5] = crystal soak, soak concentration 10 mM
[6] = crystal soak, soak concentration 10 mM, event 1
[7] = crystal soak, soak concentration 10 mM, TRUE = ligand modeled
[8] = occupancy estimate from PanDDA 1-BDC
[9] = Single dose, 200 μM, mean of three technical replicates
[10] = crystal soak concentration 20 mM
[11] = crystal soak concentration 20 mM, event 1
[12] = crystal soak concentration 20 mM, P43 crystals
[13] = Single dose, 200 μM, mean of three technical replicates, read-out: Average % competition
[14] = preliminary screen, compound at 200 μM, mean of 3-4 technical replicates, read-out: % competition in HTRF assay
[15] = crystal soak concentration 10 mM, P43 crystals
[16] = crystal soak, soak concentration 10 mM, TRUE = ligand hit

Row | Structure (SMILES) | Occupancy difference (refined_occupancy - 2*(1-BDC)) [1] | Refined ligand occupancy (%) [1] [%] | 1-BDC [1] | Total number of conformations [1] | 2*(1-BDC) (%) [1, 3] [%] | X-ray crystallography: Binding site [1] | X-ray crystal structure [1] | Pandda run, overall: Hit [1, 4] | PanDDA run, DMSO background map: Hit [1, 5] | PanDDA run, DMSO background map: 1-BDC [1, 6] | 2*(1-BDC) (%) [1, 8] [%] | Binding site [1] | Average % competition [2, 9] [%] | Pandda run, overall: Modeling comment [1, 5] | Pandda run, overall: Modeled [1, 5] | Pandda run, overall: Hit [1, 16] | PanDDA run, DMSO background map: 1-BDC ([1]; soak concentration 10 mM) | PanDDA run, DMSO background map: Hit ([1]; soak concentration 10 mM) | also measured
1 | C[C@H]1CC[C@H](CO)N(c2ncnc3[nH]ccc23)C1 (racemic) [AVI-4063] | 18 | 50 | 0.16 | 1 | 32 | Adenosine | – | – | – | – | – | – | – | – | – | – | – | – | Hit (PanDDA run, overall) ([1]; P43 crystals): TRUE; Hit (PanDDA run, DMSO background map) [1]: TRUE; 1-BDC (PanDDA run, DMSO background map) ([1]; event 1): 0.21 and 0.16; Hill slope [2]: 1.1; SARS CoV-2 macrodomain HTRF assay: Hillslope [2]: 1.1
2 | C[C@@H]1CCN(c2ncnc3[nH]ccc23)[C@H](CO)C1 (racemic) [AVI-4064] | 0 | 38 | 0.19 | 2 | 38 | Adenosine | – | – | – | – | – | – | – | – | – | – | – | – | Hit (PanDDA run, overall) ([1]; P43 crystals): TRUE; Hit (PanDDA run, DMSO background map) [1]: TRUE; 1-BDC (PanDDA run, DMSO background map) ([1]; event 1): 0.19; Hill slope [2]: 1.2; SARS CoV-2 macrodomain HTRF assay: Hillslope [2]: 1.2
3 | c1ccc(-n2nnnc2CSc2nnc(NC3CC3)s2)cc1 [AVI-286] | – | – | 0.11 | 1 | – | – | TRUE | TRUE | TRUE | 0.11 | 22 | Distal | 0 | – | – | – | – | – | PanDDA run, DMSO background map: Modeled [1, 5]: TRUE; Pandda run, overall: Modeled [1, 7]: TRUE
4 | O=C(O)C(c1ccccc1)n1sc2ccccc2c1=O (centres unmarked) [AVI-288] | 0 | 74 | 0.37 | 1 | 74 | – | TRUE | TRUE | TRUE | 0.26 | – | Adenosine | – | Duplicate, not modeled | – | – | – | – | PanDDA run, DMSO background map: Hit [1, 10]: TRUE; PanDDA run, DMSO background map: Modeled [1, 10]: TRUE; PanDDA run, DMSO background map: 1-BDC [1, 11]: 0.37; Pandda run, overall: Hit [1, 12]: TRUE; Pandda run, overall: Modeled [1, 12]: TRUE; IC50 [2]: > 1000 µM; inhibition at 200 µM [2, 13]: 21%; inhibition at 200 µM [2, 14]: 21%
5 | CC(C)n1nnnc1SCc1c(C(=O)O)sc2cccc(F)c12 [AVI-291] | 0 | 68 | 0.34 | 1 | 68 | – | TRUE | TRUE | TRUE | 0.25 | – | Adenosine | – | Duplicate, not modeled | – | – | – | – | Comment ([1]; comment on ligand modeling / Phe132 loop density): Second ligand conformation, not modeled, DMSO x2; PanDDA run, DMSO background map: Hit [1, 10]: TRUE; PanDDA run, DMSO background map: Modeled [1, 10]: TRUE; PanDDA run, DMSO background map: 1-BDC [1, 11]: 0.34; Pandda run, overall: Hit [1, 12]: TRUE; Pandda run, overall: Modeled [1, 12]: TRUE; Pandda run, overall: Modeling comment [1, 12]: Second ligand conformation, not modeled, DMSO x2; IC50 [2]: > 1000 µM; inhibition at 200 µM [2, 13]: 41%; inhibition at 200 µM [2, 14]: 41%
6 | Nc1nnc(SCCn2c(=O)oc3ccccc32)s1 [AVI-296] | – | – | 0.06 | 1 | – | – | TRUE | TRUE | TRUE | 0.06 | 12 | Distal | 7 | – | – | – | – | – | PanDDA run, DMSO background map: Modeled [1, 5]: TRUE; Pandda run, overall: Modeled [1, 7]: TRUE
7 | CCn1c(C)nnc1Sc1cnc2ccccc2n1 [AVI-297] | – | – | – | – | – | – | – | TRUE | TRUE | 0.05 | – | – | 0 | Only density for quinoxaline, not modeled | – | – | – | – | –
8 | COc1ccc(NC(=O)NC2CCCC2)cc1-n1nnnc1C [AVI-311] | – | – | – | – | – | – | – | – | – | – | – | – | 0 | – | – | – | – | – | PanDDA run, DMSO background map: 1-BDC ([1]; crystal soak concentration 10 mM, event 1): 0.09; Pandda run, overall: Hit [1, 15]: TRUE; Pandda run, overall: Modeling comment [1, 15]: Weak density, not modeled; PanDDA run, DMSO background map: Hit ([1]; crystal soak concentration 10 mM): TRUE; PanDDA run, DMSO background map: Hit [1, 10]: TRUE; PanDDA run, DMSO background map: 1-BDC [1, 11]: 0.12; Pandda run, overall: Hit [1, 12]: TRUE; Pandda run, overall: Modeling comment [1, 12]: Weak density, not modeled
9 | CN1CCN(c2ncnc3[nH]ccc23)C(CO)C1 (centres unmarked) [AVI-3721] | – | – | 0.06 | 2 | – | Adenosine | – | – | – | – | 12 | – | – | – | TRUE | TRUE | 0.06 | TRUE | –
10 | CC(C)(C)[C@@H]1CCN(c2ncnc3[nH]ccc23)[C@H](CO)C1 [AVI-3722] | – | – | 0.11 | 1 | – | Adenosine | – | – | – | – | 22 | – | – | – | TRUE | TRUE | 0.11 | TRUE | –
11 | CC1(C)CCC(CO)N(c2ncnc3[nH]ccc23)C1 (centres unmarked) [AVI-3726] | – | – | 0.17 | 3 | – | Adenosine | – | – | – | – | 34 | – | – | – | TRUE | TRUE | 0.17 | TRUE | –
12 | OCC1CC2(CCCCC2)CN1c1ncnc2[nH]ccc12 (centres unmarked) [AVI-3727] | – | – | 0.29 | 1 | – | Adenosine | – | – | – | – | 58 | – | – | Distal site, weak density, not modeled | TRUE | TRUE | 0.29 | TRUE | –
